Several values for one entry are separate records, joined by “and”; a condition that tells them apart may be missing. Equal values may be shown once.

The assay concerns the target H+,K+-ATPase (Sus scrofa, UniProt P19156). As to the kind of experiment: Dose-dependent inhibition of H+,K+-ATPase activity, membrane fractions. The following applies: for H+,K+-ATPase activity, raw data of dose-dependent inhibition: single replicate values.
Where [1] appears, read: [PCAB] -3.30103 (log, unit not given).
[2] abbreviates: [PCAB] -3.52288 (log, unit not given).
[3] abbreviates: [PCAB] -4 (log, unit not given).
Setting [4] is: [PCAB] -4.30103 (log, unit not given).
The mark [5] stands for this setting: [PCAB] -4.52288 (log, unit not given).
Setting [6] is: [PCAB] -5 (log, unit not given).
Where [7] appears, read: [PCAB] -5.52288 (log, unit not given).
Setting [8] is: [PCAB] -6 (log, unit not given).
The mark [9] stands for this setting: [PCAB] -6.30103 (log, unit not given).
The mark [10] stands for this setting: [PCAB] -7 (log, unit not given).
Where [11] appears, read: [PCAB] -8 (log, unit not given).
Where [12] appears, read: [PCAB] -11 (log, unit not given; possibly placeholder for no compound).

Sequence of H+,K+-ATPase (P19156 2-1034 limits assumed): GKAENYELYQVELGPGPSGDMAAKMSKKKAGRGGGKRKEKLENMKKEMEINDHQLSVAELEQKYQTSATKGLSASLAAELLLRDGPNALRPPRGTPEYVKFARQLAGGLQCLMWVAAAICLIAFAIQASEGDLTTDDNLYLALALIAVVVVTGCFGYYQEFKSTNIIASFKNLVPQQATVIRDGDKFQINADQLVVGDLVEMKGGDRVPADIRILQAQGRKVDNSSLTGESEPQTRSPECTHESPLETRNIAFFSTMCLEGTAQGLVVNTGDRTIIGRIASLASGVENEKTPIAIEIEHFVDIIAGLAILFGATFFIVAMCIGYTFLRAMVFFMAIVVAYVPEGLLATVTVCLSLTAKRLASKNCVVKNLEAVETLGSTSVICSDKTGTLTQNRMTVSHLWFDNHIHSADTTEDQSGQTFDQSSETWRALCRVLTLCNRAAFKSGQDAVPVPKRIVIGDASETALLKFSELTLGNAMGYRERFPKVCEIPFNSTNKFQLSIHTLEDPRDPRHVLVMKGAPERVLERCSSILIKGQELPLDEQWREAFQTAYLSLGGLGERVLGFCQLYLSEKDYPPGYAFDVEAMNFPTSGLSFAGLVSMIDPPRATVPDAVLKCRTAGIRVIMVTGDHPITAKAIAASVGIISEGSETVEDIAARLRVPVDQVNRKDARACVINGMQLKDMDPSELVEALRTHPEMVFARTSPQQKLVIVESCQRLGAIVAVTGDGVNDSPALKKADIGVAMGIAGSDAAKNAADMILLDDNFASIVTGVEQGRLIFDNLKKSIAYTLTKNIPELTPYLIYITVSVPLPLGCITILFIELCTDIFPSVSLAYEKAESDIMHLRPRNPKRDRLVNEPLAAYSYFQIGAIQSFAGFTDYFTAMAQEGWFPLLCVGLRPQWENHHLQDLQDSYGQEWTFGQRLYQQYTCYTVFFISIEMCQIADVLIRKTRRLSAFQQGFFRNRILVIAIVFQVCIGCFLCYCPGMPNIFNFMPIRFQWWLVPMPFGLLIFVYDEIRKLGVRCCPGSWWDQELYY
Sequence of H+,K+-ATPase (P18434 whole entry partner): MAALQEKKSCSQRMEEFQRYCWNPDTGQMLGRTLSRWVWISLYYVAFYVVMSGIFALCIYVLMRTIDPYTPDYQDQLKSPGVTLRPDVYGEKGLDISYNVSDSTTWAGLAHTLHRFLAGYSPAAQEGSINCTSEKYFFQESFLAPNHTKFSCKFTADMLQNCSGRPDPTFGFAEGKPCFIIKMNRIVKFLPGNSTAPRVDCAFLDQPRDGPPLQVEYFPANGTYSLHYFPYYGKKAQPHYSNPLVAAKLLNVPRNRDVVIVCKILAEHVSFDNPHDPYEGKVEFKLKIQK

As usually defined, the IC50 is the concentration that inhibits the measured activity by half. High values mean weaker potency in that assay, low ones greater potency in that assay. On to `CN(C)Cc1ccc(OCc2ccccc2OCc2ccccc2)cc1` [DQ-11], for which the IC50 was 5.57 ± 0.45 µM. The “H+,K+-ATPase activity, raw data of dose-dependent inhibition” value under setting [1] is -9.05 and -9.17 and -0.38 and -0.55 and 0.75 and 0.18. For the same compound, the “H+,K+-ATPase activity, raw data of dose-dependent inhibition” value under setting [2] is -7.01 and -7.07 and 0.86 and 1.01 and 0.22 and 0.76. Also, under setting [3], the “H+,K+-ATPase activity, raw data of dose-dependent inhibition” value was 0.73 and 0.95 and 7.54 and 7.57 and 6.64 and 7.22. Under setting [4], the “H+,K+-ATPase activity, raw data of dose-dependent inhibition” value was 5.75 and 5.69 and 7.96 (2×) and 7.99 and 7.73. In addition, under setting [5], the “H+,K+-ATPase activity, raw data of dose-dependent inhibition” value is 10.92 and 10.91 and 16.8 and 13.24 and 16.06 and 16.58. The “H+,K+-ATPase activity, raw data of dose-dependent inhibition” value under setting [6] is 34.05 and 32.3 and 39.91 and 37.9 and 37.76 and 40.04. The “H+,K+-ATPase activity, raw data of dose-dependent inhibition” value under setting [7] is 63.88 and 61.74 and 70.3 and 67.49 and 63.1 and 68.35. Besides, under setting [8], the “H+,K+-ATPase activity, raw data of dose-dependent inhibition” value is 89.53 and 87.88 and 83.74 and 79.92 and 83.72 and 84.81. Also, the “H+,K+-ATPase activity, raw data of dose-dependent inhibition” value under setting [9] is 90.62 and 87.46 and 94.24 and 93.36 and 93.48 and 92.73. In addition, the “H+,K+-ATPase activity, raw data of dose-dependent inhibition” value under setting [10] was 95.63 and 90.8 and 99.34 and 102.28 and 88.88 and 100.71. Also, the “H+,K+-ATPase activity, raw data of dose-dependent inhibition” value under setting [11] is 97.6 and 94.94 and 102 and 102.29 and 100.82 and 103.84. Also, the “H+,K+-ATPase activity, raw data of dose-dependent inhibition” value under setting [12] is 102.26 and 95.06 and 98.26 and 100.19 and 96.56 and 106.72.

In turn, `CNCC#CCn1ccnc1NC(=O)c1ccccc1` [DQ-09] displayed an IC50 of over 2000 µM. For the same compound, the “H+,K+-ATPase activity, raw data of dose-dependent inhibition” value ([PCAB] -3.455 (log, unit not given)) is 63.11 and 66.04 and 91.33 and 94.1 and 93.4 and 93.07. The “H+,K+-ATPase activity, raw data of dose-dependent inhibition” value ([PCAB] -3.67685 (log, unit not given)) is 81.52 and 80.18 and 94.54 and 95.44 and 96.5 and 95.18. The “H+,K+-ATPase activity, raw data of dose-dependent inhibition” value ([PCAB] -4.15397 (log, unit not given)) was 92.95 and 94.76 and 92.15 and 93.44 and 92.03 and 93.77. In addition, the “H+,K+-ATPase activity, raw data of dose-dependent inhibition” value ([PCAB] -4.455 (log, unit not given)) was 99 and 99.88 and 97.42 and 97.61 and 95.39 and 91.33. The “H+,K+-ATPase activity, raw data of dose-dependent inhibition” value ([PCAB] -4.67685 (log, unit not given)) was 97.65 and 97.31 and 107.67 and 103.09 and 98.87 and 105.02. Moreover, the “H+,K+-ATPase activity, raw data of dose-dependent inhibition” value ([PCAB] -5.15397 (log, unit not given)) was 99.93 and 96.29 and 97.51 and 98.34 and 88.34 and 93.86. Moreover, under “[PCAB] -5.67685 (log, unit not given)”, the “H+,K+-ATPase activity, raw data of dose-dependent inhibition” value was 101.49 and 99.52 and 93.88 and 106.02 and 103.98 and 106.05. The “H+,K+-ATPase activity, raw data of dose-dependent inhibition” value ([PCAB] -6.15397 (log, unit not given)) is 99.11 and 99.53 and 98.71 and 99.47 and 95.43 and 99.9. Further, the “H+,K+-ATPase activity, raw data of dose-dependent inhibition” value ([PCAB] -7.00046 (log, unit not given)) was 100.13 and 101.44 and 98.87 and 102.62 and 97 and 100.92. Moreover, for the setting “[PCAB] -7.15397 (log, unit not given)”, the “H+,K+-ATPase activity, raw data of dose-dependent inhibition” value was 100.4 and 99.7 and 97.72 and 99.58 and 95.86 and 98.79. Also, the “H+,K+-ATPase activity, raw data of dose-dependent inhibition” value ([PCAB] -8.15397 (log, unit not given)) was 99.08 and 99.65 and 97.54 and 97.72 and 99.14 and 96.06. In addition, the “H+,K+-ATPase activity, raw data of dose-dependent inhibition” value under setting [12] was 99.26 and 98.65 and 101.5 and 98.45 and 98.97 and 101.13.

`NCc1ccc(OCc2ccccc2OCc2ccccc2)cc1` [DQ-12]: the IC50 turned out to be 1.54 ± 0.07 µM. In addition, the “H+,K+-ATPase activity, raw data of dose-dependent inhibition” value under setting [1] is -2.13 and -5.12 and -1.35 and 1.97 and -1.31 and 0.69. Besides, under setting [2], the “H+,K+-ATPase activity, raw data of dose-dependent inhibition” value is -0.8 and -0.12 and -1.95 (2×) and -1.32 and -0.19. Besides, under setting [3], the “H+,K+-ATPase activity, raw data of dose-dependent inhibition” value is 0.73 and 0 and -0.35 and -0.11 and -0.2 and 0.01. Moreover, the “H+,K+-ATPase activity, raw data of dose-dependent inhibition” value under setting [4] was 3.34 and 3.14 and -0.81 and -0.94 and -0.85 and -0.15. The “H+,K+-ATPase activity, raw data of dose-dependent inhibition” value under setting [5] is 5.83 and 5.43 and 5.22 and 6.02 and 6.1 and 5.29. Moreover, under setting [6], the “H+,K+-ATPase activity, raw data of dose-dependent inhibition” value was 14.6 and 14.36 and 13.48 and 12.93 and 13.73 and 12.81. The “H+,K+-ATPase activity, raw data of dose-dependent inhibition” value under setting [7] was 35.47 and 34.66 and 35.13 and 34.7 and 33.05 and 34.53. Under setting [8], the “H+,K+-ATPase activity, raw data of dose-dependent inhibition” value is 63.22 and 63.5 and 59.87 and 57.62 and 57.1 and 58.43. Moreover, the “H+,K+-ATPase activity, raw data of dose-dependent inhibition” value under setting [9] was 74.96 and 75.04 and 76.55 and 75.62 and 74.4 and 76.41. In addition, the “H+,K+-ATPase activity, raw data of dose-dependent inhibition” value under setting [10] was 91.01 and 87.51 and 98.57 and 99.1 and 95.69 and 97.51. Moreover, the “H+,K+-ATPase activity, raw data of dose-dependent inhibition” value under setting [11] was 96.05 and 93.52 and 100.03 and 97.19 and 98.53 and 98.62. For the same compound, under setting [12], the “H+,K+-ATPase activity, raw data of dose-dependent inhibition” value was 97.64 and 96.4 and 100.03 and 99.55 and 98.47 and 102.15.

Compound `CNCc1ccc(OCc2c(Cl)cccc2OCc2ccccc2)cc1` [DQ-19] had a 50% inhibitory concentration (IC50) of 3.52 ± 0.22 µM. Under setting [1], the “H+,K+-ATPase activity, raw data of dose-dependent inhibition” value is -0.65 and -0.09 and -0.18 (2×) and 0.39 and -0.03. In addition, the “H+,K+-ATPase activity, raw data of dose-dependent inhibition” value under setting [2] is 1.38 and 2.32 and 2.04 and 1.91 and 2.46 and 2.13. The “H+,K+-ATPase activity, raw data of dose-dependent inhibition” value under setting [3] was 10.36 and 10.46 and 8.18 and 7.73 and 7.75 and 7.91. In addition, the “H+,K+-ATPase activity, raw data of dose-dependent inhibition” value under setting [4] is 16.41 and 15.72 and 6.63 and 6.46 and 5.99 and 5.93. The “H+,K+-ATPase activity, raw data of dose-dependent inhibition” value under setting [5] was 18.62 (2×) and 17.28 and 17.05 and 16.78 and 16.42. The “H+,K+-ATPase activity, raw data of dose-dependent inhibition” value under setting [6] is 27.04 and 27.03 and 26.28 and 26.11 and 26 and 25.46. The “H+,K+-ATPase activity, raw data of dose-dependent inhibition” value under setting [7] was 56.8 and 57.52 and 52.1 and 50.99 and 52.47 and 50.98. Moreover, the “H+,K+-ATPase activity, raw data of dose-dependent inhibition” value under setting [8] is 77.41 and 78.78 and 71.45 and 74.76 and 72.12 and 73.47. Also, the “H+,K+-ATPase activity, raw data of dose-dependent inhibition” value under setting [9] is 84.8 and 85.13 and 83.98 and 84.02 and 82.9 and 83.28. Further, under setting [10], the “H+,K+-ATPase activity, raw data of dose-dependent inhibition” value is 91.5 and 92.21 and 96.4 and 96.06 and 98.84 and 94.11. Also, the “H+,K+-ATPase activity, raw data of dose-dependent inhibition” value under setting [11] was 95.21 and 97 and 100.13 and 98.68 and 100.43 and 97.42. Also, the “H+,K+-ATPase activity, raw data of dose-dependent inhibition” value under setting [12] is 95.94 and 97.66 and 99.42 and 99.81 and 100.11 and 99.03.

For the origin of these results see publication PMC10509173, “Deep learning driven de novo drug design based on gastric proton pump structures” (Communications Biology, 2023).
